# Assay results from ChEMBL document CHEMBL1149683, “Novel TOPP descriptors in 3D-QSAR analysis of apoptosis inducing 4-aryl-4H-chromenes: comparison versus other 2D- and 3D-descriptors” (2007).
# Test system: HL-60
# Assay: Induction of apoptosis in human HL60 […]
# Type: functional
row,Compound,Log (1/C)
1,COc1ccc2c(c1)OC(N)=C(C#N)C2c1cc(Br)c(OC)c(OC)c1 (stereo not drawn),7.77
2,COc1ccc2c(c1)OC(N)=C(C#N)C2c1cccc(Br)c1 (stereo not drawn),7.28
3,COc1ccc2c(c1)OC(N)=C(C#N)C2c1cccc(Cl)c1 (stereo not drawn),7.1
4,COc1cc(OC)cc(C2C(C#N)=C(N)Oc3cc(OC)ccc32)c1 (stereo not drawn),7.82
5,COc1ccc2c(c1)OC(N)=C(C#N)C2c1cccc([N+](=O)[O-])c1 (stereo not drawn),7.05
6,CCNc1ccc2c(c1)OC(N)=C(C#N)C2c1cc(OC)c2c(c1)OCO2 (stereo not drawn),6.48
7,CCNc1cc2c(cc1C)C(c1cc(OC)c3c(c1)OCO3)C(C#N)=C(N)O2 (stereo not drawn),5.96
8,COc1cc(C2C(C#N)=C(N)Oc3cc(Cl)ccc32)cc(Br)c1OC (stereo not drawn),6.8
9,CCOc1ccc2c(c1)OC(N)=C(C#N)C2c1cc(Br)c(OC)c(OC)c1 (stereo not drawn),7.19
10,COc1cc(C2C(C#N)=C(N)Oc3cc(O)ccc32)cc(Br)c1OC (stereo not drawn),6.89
11,COc1cc(C2C(C#N)=C(N)Oc3c2ccc(N)c3C)cc2c1OCO2 (stereo not drawn),6.51
12,N#CC1=C(N)Oc2c(ccc(N)c2N)C1c1cccc(Br)c1 (stereo not drawn),6.82
13,COc1cc(C2C(C#N)=C(N)Oc3c2ccc(O)c3O)cc(Br)c1OC (stereo not drawn),5.77
14,COc1ccc2c(c1)OC(N)=C(C#N)C2c1ccccc1 (stereo not drawn),6.44
15,COc1ccc2c(c1)OC(N)=C(C#N)C2c1cc(OC)c(OC)c(OC)c1 (stereo not drawn),7.59
16,COc1ccc2c(c1)OC(N)=C(C#N)C2c1cc(OC)c2c(c1)OCO2 (stereo not drawn),6.8
17,COc1ccc2c(c1)OC(N)=C(C#N)C2c1cccnc1 (stereo not drawn),6.77
18,N#CC1=C(N)Oc2c(ccc(N)c2N)C1c1cccc(C#N)c1 (stereo not drawn),6.41
19,COc1cc(C2C(C#N)=C(N)Oc3cc4c(cc32)OCO4)cc2c1OCO2 (stereo not drawn),6.68
20,COc1cc(C2C(C#N)=C(N)Oc3c2ccc(C)c3C)cc(Br)c1OC (stereo not drawn),7.38
21,COc1cc(C2C(C#N)=C(N)Oc3c2ccc(N)c3N)cc(Br)c1O (stereo not drawn),7.64
22,COc1cc(C2C(C#N)=C(N)Oc3c2ccc(N)c3N)cc(I)c1OC (stereo not drawn),5.31
23,COc1cc(C2C(C#N)=C(N)Oc3c2ccc(N)c3N)cc(Cl)c1OC (stereo not drawn),7.62
24,COc1cccc(C2C(C#N)=C(N)Oc3cc(N(C)C)ccc32)c1OC (stereo not drawn),5.99
25,CN(C)c1ccc2c(c1)OC(N)=C(C#N)C2c1cccc(Br)c1 (stereo not drawn),7.19

row,Compound,Log (1/C)
1,CN(C)c1ccc2c(c1)OC(N)=C(C#N)C2c1cccc(Cl)c1 (stereo not drawn),6.95
2,CN(C)c1ccc2c(c1)OC(N)=C(C#N)C2c1cccs1 (stereo not drawn),6.7
3,CN(C)c1ccc2c(c1)OC(N)=C(C#N)C2c1cccnc1 (stereo not drawn),7.17
4,COc1cc(C2C(C#N)=C(N)Oc3cc(N(C)C)ccc32)cc(Cl)c1OC (stereo not drawn),7.74
5,COc1ccc(C2C(C#N)=C(N)Oc3cc(N(C)C)ccc32)c(OC)c1OC (stereo not drawn),5.5
6,CN(C)c1ccc2c(c1)OC(N)=C(C#N)C2c1cccc(F)c1 (stereo not drawn),7.09
7,COc1cc(C2C(C#N)=C(N)Oc3cc(N(C)C)ccc32)cc(I)c1OC (stereo not drawn),7.74
8,CN(C)c1ccc2c(c1)OC(N)=C(C#N)C2c1ccccn1 (stereo not drawn),6.33
9,COc1cc(OC)c(C2C(C#N)=C(N)Oc3cc(N(C)C)ccc32)cc1OC (stereo not drawn),5.75
10,Cc1cncc(C2C(C#N)=C(N)Oc3cc(N(C)C)ccc32)c1 (stereo not drawn),7.96
11,Cc1cccc(C2C(C#N)=C(N)Oc3cc(N(C)C)ccc32)n1 (stereo not drawn),6.61
12,CN(C)c1ccc2c(c1)OC(N)=C(C#N)C2c1cccc(OC(F)(F)F)c1 (stereo not drawn),6.35
13,COc1ccc(C2C(C#N)=C(N)Oc3cc(N(C)C)ccc32)cc1 (stereo not drawn),5.8
14,Cc1cccc(C2C(C#N)=C(N)Oc3cc(N(C)C)ccc32)c1 (stereo not drawn),6.87
15,CN(C)c1ccc2c(c1)OC(N)=C(C#N)C2c1cc(Br)c2c(c1)OCO2 (stereo not drawn),6.61
16,CN(C)c1ccc2c(c1)OC(N)=C(C#N)C2c1cc(Cl)cc(Cl)c1 (stereo not drawn),7.12
17,COc1ccc(C2C(C#N)=C(N)Oc3cc(N(C)C)ccc32)cc1OC (stereo not drawn),6.6
18,CCNc1ccc2c(c1)OC(N)=C(C#N)C2c1cccc(Cl)c1 (stereo not drawn),6.92
19,CCNc1ccc2c(c1)OC(N)=C(C#N)C2c1cc(OC)c(OC)c(OC)c1 (stereo not drawn),7.31
20,CCNc1ccc2c(c1)OC(N)=C(C#N)C2c1cccc(OC)c1 (stereo not drawn),6.96
21,COc1ccc(CC2C(C#N)=C(N)Oc3cc(N(C)C)ccc32)c(Br)c1OC (stereo not drawn),5.14
22,CCN(CC)c1ccc2c(c1)OC(N)=C(C#N)C2c1cc(OC)c2c(c1)OCO2 (stereo not drawn),6.32
23,COc1cc(C2C(C#N)=C(N)Oc3cc(O)ccc32)cc2c1OCO2 (stereo not drawn),5.24
24,COc1cc(C2C(C#N)=C(N)Oc3cc(Br)ccc32)cc(Br)c1OC (stereo not drawn),6.85
25,COc1cc(C2C(C#N)=C(N)Oc3c2ccc(N)c3N)cc(Br)c1OC (stereo not drawn),7.47

row,Compound,Log (1/C)
1,COc1cc(OC)cc(C2C(C#N)=C(N)Oc3c2ccc(N)c3N)c1 (stereo not drawn),7.04
2,CCNc1ccc2c(c1)OC(N)=C(C#N)C2c1cc(Br)c(OC)c(OC)c1 (stereo not drawn),7.85
3,COc1cccc(C2C(C#N)=C(N)Oc3cc(OC)ccc32)c1 (stereo not drawn),7.28
4,COc1cc(C2C(C#N)=C(N)Oc3cc(N(C)C)ccc32)cc2c1OCO2 (stereo not drawn),7.14
5,COc1cc(C2C(C#N)=C(N)Oc3cc(N)ccc32)cc2c1OCO2 (stereo not drawn),5.92
6,CN(C)c1ccc2c(c1)OC(N)=C(C#N)C2c1cccc(O)c1 (stereo not drawn),6.57
7,CN(C)c1ccc2c(c1)OC(N)=C(C#N)C2c1cc(Br)cs1 (stereo not drawn),6.82
8,CN(C)c1ccc2c(c1)OC(N)=C(C#N)C2c1cccc(C#N)c1 (stereo not drawn),7.2
9,CN(C)c1ccc2c(c1)OC(N)=C(C#N)C2CCc1ccccc1 (stereo not drawn),6.37
10,CN(C)c1ccc2c(c1)OC(N)=C(C#N)C2c1cnc2ccccc2c1 (stereo not drawn),5.74
11,N#CC1=C(N)Oc2c(ccc(N)c2N)C1c1cccc([N+](=O)[O-])c1 (stereo not drawn),6.41
12,COc1cc(C2C(C#N)=C(N)Oc3c2ccc(O)c3N)cc(Br)c1OC (stereo not drawn),7.21
13,COc1cncc(C2C(C#N)=C(N)Oc3cc(OC)ccc32)c1 (stereo not drawn),7.33
14,COc1cc(C2C(C#N)=C(N)Oc3cc(N)ccc32)cc(Br)c1OC (stereo not drawn),7.48
15,COc1cccc(C2C(C#N)=C(N)Oc3cc(N(C)C)ccc32)c1 (stereo not drawn),7.19
16,COc1cc(C2C(C#N)=C(N)Oc3cc(N(C)C)ccc32)cc(Br)c1O (stereo not drawn),7.39
17,CCNc1ccc2c(c1)OC(N)=C(C#N)C2c1cccc([N+](=O)[O-])c1 (stereo not drawn),6.96
18,CCNc1ccc2c(c1)OC(N)=C(C#N)C2c1cc(OC)cc(OC)c1 (stereo not drawn),7.26
19,CN(C)c1ccc2c(c1)OC(N)=C(C#N)C2c1ccncc1 (stereo not drawn),6.42
20,COc1cc(Br)cc(C2C(C#N)=C(N)Oc3cc(N(C)C)ccc32)c1 (stereo not drawn),7.51
21,CN(C)c1ccc2c(c1)OC(N)=C(C#N)C2c1cncc(Br)c1 (stereo not drawn),7.48
22,COc1cc(C2C(C#N)=C(N)Oc3c2ccc(N)c3C)cc(Br)c1OC (stereo not drawn),7.59
23,COc1ccccc1C1C(C#N)=C(N)Oc2cc(N(C)C)ccc21 (stereo not drawn),6.55
